From ChEMBL document CHEMBL1136562, “Structure-activity relationships of substituted benzothiophene-anthranilamide factor Xa inhibitors” (Bioorg Med Chem Lett, 2003)

How the values were obtained:
Prothrombin = Prothrombin (Homo sapiens, UniProt P00734); assay: Inhibition constant against human thrombin; conditions: read-out: Ki app
Coagulation factor X = Coagulation factor X (Homo sapiens, UniProt P00742); assay: Inhibition constant against human factor Xa; conditions: read-out: Ki app
[1] = molecular target: Cationic trypsin (Bos taurus); assay: Inhibition constant against bovine trypsin

Chain of Coagulation factor X (P00742 41-179 limits assumed): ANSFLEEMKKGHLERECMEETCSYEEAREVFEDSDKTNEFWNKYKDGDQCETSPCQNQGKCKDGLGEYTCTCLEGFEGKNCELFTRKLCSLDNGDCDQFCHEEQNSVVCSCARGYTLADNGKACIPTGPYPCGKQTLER
Chain of Coagulation factor X (P00742 235-488 limits assumed): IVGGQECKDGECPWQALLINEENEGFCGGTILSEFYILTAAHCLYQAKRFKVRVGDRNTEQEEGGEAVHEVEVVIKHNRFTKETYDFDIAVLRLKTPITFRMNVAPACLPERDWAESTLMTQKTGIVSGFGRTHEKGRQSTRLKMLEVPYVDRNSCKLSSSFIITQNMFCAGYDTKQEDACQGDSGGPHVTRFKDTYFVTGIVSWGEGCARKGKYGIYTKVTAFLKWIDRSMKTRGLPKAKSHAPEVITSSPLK

| SMILES | Ki (Prothrombin) | Ki (Coagulation factor X) | Ki app [1] |
| --- | --- | --- | --- |
| O=C(Nc1ccc(Cl)cc1)c1cc(Cl)c(F)cc1NC(=O)c1sc2ccccc2c1Cl | > 5 µM | 0.007 µM |  |
| Cc1ccc(NC(=O)c2sc3ccccc3c2Cl)c(C(=O)Nc2ccc(C(F)(F)F)cc2)c1 | > 5 µM | > 5 µM | > 5 µM |
| COc1cc(Cl)cc(C(=O)Nc2ccc(Cl)cc2)c1NC(=O)c1sc2ccccc2c1Cl | > 5 µM | 0.0022 µM | > 5 µM |
| CSc1ncc(Cl)c(C(=O)Nc2ccc(C)cc2C(=O)Nc2ccc(Cl)cc2)n1 | > 5 µM | > 5 µM | > 5 µM |
| O=C(Nc1ccc(Cl)cc1)c1cccc(O)c1NC(=O)c1sc2ccccc2c1Cl | > 5 µM | 0.018 µM |  |
| O=C(Nc1cccc(Cl)c1C(=O)Nc1ccc(Cl)cc1)c1sc2ccccc2c1Cl | > 5 µM | > 5 µM | > 5 µM |
| O=C(Nc1ccc(Cl)cc1)c1ccc(Cl)cc1NC(=O)c1sc2ccccc2c1Cl | > 5 µM | 0.026 µM |  |
| Cc1ccc(NC(=O)c2sc3ccccc3c2Cl)c(C(=O)Nc2ccc(Cl)cn2)c1 | > 5 µM | 0.0023 µM | > 5 µM |
| O=C(Nc1ccc(Cl)cc1)c1cc(O)ccc1NC(=O)c1sc2ccccc2c1Cl | > 5 µM | 0.073 µM | > 5 µM |
| Cc1ccc(NC(=O)c2sccc2Cl)c(C(=O)Nc2ccc(F)cc2)c1 | > 5 µM | 0.39 µM | > 5 µM |
| Cc1ccc(NC(=O)c2sc(C)nc2C)c(C(=O)Nc2ccc(Cl)cc2)c1 | > 5 µM | 0.21 µM |  |
| O=C(Nc1ccc(Cl)cc1)c1cc([N+](=O)[O-])ccc1NC(=O)c1sc2ccccc2c1Cl | > 5 µM | > 0.5 µM |  |
| Cc1ccc(C(=O)Nc2ccc(Cl)cc2)c(NC(=O)c2sc3ccccc3c2Cl)c1 | > 5 µM | 0.0072 µM | > 5 µM |
| Cc1ccc(NC(=O)c2sc3ccccc3c2C)c(C(=O)Nc2ccc(F)cc2)c1 | > 5 µM | 0.025 µM | > 5 µM |
| CCOC(=O)COc1cccc(C(=O)Nc2ccc(Cl)cc2)c1NC(=O)c1sc2ccccc2c1Cl | > 5 µM | 0.022 µM | > 5 µM |
| Cc1ccc(NC(=O)c2sc3ccccc3c2Cl)c(C(=O)Nc2ccc(Br)cc2)c1 | > 5 µM | 0.00046 µM |  |
| Cc1ccc(NC(=O)c2sc3ccccc3c2Cl)c(C(=O)Nc2ccccn2)c1 | > 5 µM | 0.03 µM | > 5 µM |
| Cc1ccc(NC(=O)c2sc3ccccc3c2Cl)c(C(=O)Nc2ccc(CN)cc2)c1 | > 5 µM | 1.4 µM | > 5 µM |
| COc1c(Br)csc1C(=O)Nc1ccc(C)cc1C(=O)Nc1ccc(Cl)cc1 | > 5 µM | 0.054 µM |  |
| COC(=O)c1ccc(NC(=O)c2cc(C)ccc2NC(=O)c2sc3ccccc3c2Cl)cc1 | > 5 µM | > 5 µM | > 5 µM |
| Cc1cc(NC(=O)c2sc3ccccc3c2Cl)c(C(=O)Nc2ccc(Cl)cc2)cc1Cl | > 5 µM | 0.011 µM | > 5 µM |
| COc1ccsc1C(=O)Nc1ccc(C)cc1C(=O)Nc1ccc(Cl)cc1 | > 5 µM | 0.16 µM | > 5 µM |
| Cc1ccc(NC(=O)c2sc3ccccc3c2Cl)c(C(=O)Nc2ccc(C#N)cc2)c1 | > 5 µM | 0.15 µM |  |
| Cc1ccc(NC(=O)c2sc3ccccc3c2Cl)c(C(=O)Nc2ccc(N)cc2)c1 | > 5 µM | 0.28 µM |  |
| Cc1ccc(NC(=O)c2cc(C)ccc2NC(=O)c2sc3ccccc3c2Cl)cc1 | > 5 µM | 0.0071 µM | > 5 µM |
| O=C(Nc1ccc(Cl)cc1)c1cc(Cl)ccc1NC(=O)c1sc2ccccc2c1Cl | > 5 µM | 0.0006 µM | > 5 µM |
| O=C(Nc1ccc(Cl)cc1)c1ccc(C(F)(F)F)cc1NC(=O)c1sc2ccccc2c1Cl | > 5 µM | 0.1 µM | > 5 µM |
| Cc1ccc(NC(=O)c2sc3ccccc3c2O)c(C(=O)Nc2ccc(Cl)cc2)c1 | > 5 µM | 4.4 µM |  |
| O=C(Nc1ccc(Cl)cc1)c1cc(F)ccc1NC(=O)c1sc2ccccc2c1Cl | > 5 µM | 0.005 µM |  |
